Patent publication US20090149417A1, “Methods and compositions for the treatment of cancer using benzopyrone-type PARP inhibitors” (priority 2007, published 2009)
Where two headings read alike, the source gives them in different places.

Assays:
[1] = tested on: PC-3; assay: BrdU chemiluminescent cell proliferation assay; type: cell-based, human; conditions: for IC50: Homo sapiens, PC-3, 72 h, 72 hour treatment
Method: (§1) Test Agents—Cells are treated 24 hours after plating (Day 1) with vehicle or test agents at concentrations of 0.1 μM, 0.3 μM, 1 μM, 3 μM, 10 μM, 30 μM and 100 μM.
(§2) Tumor Cell Lines—Tumor cell lines (Table 1) are obtained from the American Type Cell Collection (ATCC, Rockville, Md.) or NCI-DCTD Tumor Repository (Bethesda, Md.) and maintained in proper growth media supplemented with 10% fetal bovine serum (FBS, NovaTech), and are maintained in specified growth media. Cells are propagated at 37° C. in a humidified atmosphere containing 5% carbon dioxide.
(§3) Cell proliferation assay—Cell proliferation is determined using BrdU chemiluminescent assay, which measures incorporation of 5-bromo-2′-deoxyuridine (BrdU) into the genomic DNA of proliferating cells. Briefly, cells are added with BrdU for 4 hours, during which time it incorporates into the DNA of dividing cells in place of thymidine. Following labeling, cells are fixed and DNA denatured in one step by adding a FixDenat® denaturizing solution. After removing FixDenat, an anti-BrdU-peroxidase conjugated antibody is added, which binds to BrdU incorporated into newly-synthesized cellular DNA. Following antibody incubation, cells are washed 3 times with PBS and subjected to luminescent analysis. The reaction product is quantified by measuring light emission using a scanning multi-well luminometer (luminescence ELISA reader.)
(§4) Experimental Design—Tumor cells (Table 1) are grown to 70% confluency, trypsinized, counted and seeded in 96 well flat-bottom plates at final concentrations of 7.5×103-3×10^4 cells/well (Day 0); treatment with IIIg begins on Day 1 and continues for 68 hours (Table 2). Doses for both compounds range between […] and 100 μM. At the 68 hour time point, viable cell number is measured by BrdU assay as described above. Experiments are repeated at least twice at the same doses to determine inhibition of cell proliferation. Results from these studies are used to calculate an IC50 value (drug concentration that results in half-maximal response) for IIIg in each line.
(§5) For single studies, data from each experiment is collected and expressed as % Inhibition of Cell Proliferation (% ICP) using the following calculation.
(§6) % ICP=100%×[(1−(RLUtest/RLUvehicle)]
(§7) Where RLUtest is the relative light unit of the tested sample, and RLUvehicle is the relative light unit of the vehicle in which the drug is dissolved. An IC50 value is calculated from % ICP (PRISM® GraphPad software) using the formula:
(§8) y=min+(max−min)/(1+10^(Log(IC50)−x)×Hillslope)
(§9) Where (x) is the logarithm of agonist concentration, (y) is the response, and (min) and (max) are the variable lower and upper plateaus, respectively. The variable Hillslope characterizes the slope of the curve at its midpoint. The IC50 is the drug concentration for y halfway between min and max.

[2] = tested on: PANC-1; assay: BrdU chemiluminescent cell proliferation assay; type: cell-based, human; conditions: for IC50: Homo sapiens, PANC-1, 72 h, 72 hour treatment
Method: as §1, §2, §3, §4, §5, §6, §7, §8, §9

[3] = tested on: PARP1+/+A16 fibroblasts; assay: Proliferation by BrdU incorporation; type: cell-based; conditions: wildtype fibroblasts; single agent
Method: (§10) Proliferation of various tumor cell lines including uterine cancer Hela cells, lung carcinoma A549 cells, PARP1+/+A16 and PARP1−/− A12 fibroblasts, and several human pancreatic tumor cell lines, COLO357FG, MiaPaCa-2, AsPC-1, L3.6pl, and Panc28, is measured by BrdU incorporation. In some experiments, tumor cell proliferation is measured after 96 hours. The concentration of IIIg is titrated to show the effect of IIIg on tumor cell growth in vitro.
(§11) BrdU assay is well known in the art. Briefly, cells are cultured in the presence of the respective test substances in an appropriate 96-well MP at 37° C. for a certain period of time (1 to 5 days, depending on the individual assay system). Subsequently, BrdU is added to the cells and the cells are reincubated (usually 2-24 h). During this labeling period, the pyrimidine analogue BrdU is incorporated in place of thymidine into the DNA of proliferating cells. After removing the culture medium the cells are fixed and the DNA is denatured in one step by adding FixDenat (the denaturation of the DNA is necessary to improve the accessibility of the incorporated BrdU for detection by the antibody). The anti-BrdU-POD antibody is added and the antibody binds to the BrdU incorporated in newly synthesized, cellular DNA. The immune complexes are detected by the subsequent substrate reaction via chemiluminescent detection (based on Cell Proliferation ELISA, BrdU Chemiluminescence Protocol from Roche).
(§12) Experiments and analyses are performed according to Shaw G and Prowse DM, “Inhibition of androgen-independent prostate cancer cell growth is enhanced by combination therapy targeting Hedgehog and ErbB signaling” Cancer Cell Int. 2008 Mar. 18; 8:3.

[4] = tested on: PARP1−/− A12 fibroblasts; assay: Proliferation by BrdU incorporation; type: cell-based; conditions: PARP-1−/− fibroblasts; single agent
Method: as §10, §11, §12

[5] = tested on: human pancreatic tumor cell lines, COLO357FG, MiaPaCa-2, AsPC-1, L3.6pl, and Panc28; assay: Proliferation by BrdU incorporation; type: cell-based; conditions: single agent
Method: as §10, §11, §12

[6] = mean of Exp1 and Exp2, read-out: Mean IC50

SMILES: O=c1ccc2c(I)c([N+](=O)[O-])ccc2o1 [IIIg, 5-iodo-6-nitro-benzopyrone]
- IC50 ([1]; Exp1, read-out: IC50): 22 µM
- IC50 ([1]; Exp2, read-out: IC50): 25.3 µM
- IC50 [1, 6]: 23.7 µM
- Mean Maximum % Response ([1]; Max Concentration 100 μM): 100%
- IC50 ([2]; Exp1, read-out: IC50): 22 µM
- IC50 ([2]; Exp2, read-out: IC50): 27 µM
- IC50 [2, 6]: 24.5 µM
- Mean Maximum % Response ([2]; Max Concentration 100 μM): 99%
- Cell growth [3]: selectively inhibits the growth of wildtype
- Cell growth [4]: not PARP-1−/− fibroblasts
- Cell growth [5]: significantly inhibits cell growth
